Source: PubChem BioAssay (NCI)
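Exposure lasted 48 hours, with cells grown in 96-well plates and compounds tested at five concentrations. GI50 is the concentration that inhibits growth by half. TGI denotes the concentration required for complete inhibition of growth.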

Legend:
Assay in all cases: inhibition of tumour cell growth, NCI panel, 48 h
K-562 leukemia = test system: K-562 leukemia
SN12C renal = test system: SN12C renal
MDA-MB-231 breast = test system: MDA-MB-231 breast
HS 578T breast = test system: HS 578T breast
UACC-62 melanoma = test system: UACC-62 melanoma
HOP-62 NSCLC = test system: HOP-62 NSCLC
ACHN renal = test system: ACHN renal
SF-295 CNS = test system: SF-295 CNS
BT-549 breast = test system: BT-549 breast
NCI-H460 lung = test system: NCI-H460 lung
UO-31 renal = test system: UO-31 renal
OVCAR-3 ovarian = test system: OVCAR-3 ovarian
RPMI-8226 leukemia = test system: RPMI-8226 leukemia
HCT-15 colon = test system: HCT-15 colon
SR leukemia = test system: SR leukemia
A498 renal = test system: A498 renal
SNB-75 CNS = test system: SNB-75 CNS
HCT-116 colon = test system: HCT-116 colon
SK-MEL-28 melanoma = test system: SK-MEL-28 melanoma
OVCAR-4 ovarian = test system: OVCAR-4 ovarian
SK-MEL-2 melanoma = test system: SK-MEL-2 melanoma
IGROV1 ovarian = test system: IGROV1 ovarian
SNB-19 CNS = test system: SNB-19 CNS
DU-145 prostate = test system: DU-145 prostate
CCRF-CEM leukemia = test system: CCRF-CEM leukemia
SW-620 colon = test system: SW-620 colon
CAKI-1 renal = test system: CAKI-1 renal
HT29 colon = test system: HT29 colon
OVCAR-8 ovarian = test system: OVCAR-8 ovarian
SK-MEL-5 melanoma = test system: SK-MEL-5 melanoma
SF-268 CNS = test system: SF-268 CNS
LOX IMVI melanoma = test system: LOX IMVI melanoma
MCF7 breast = test system: MCF7 breast
UACC-257 melanoma = test system: UACC-257 melanoma
786-0 renal = test system: 786-0 renal
KM12 colon = test system: KM12 colon
TK-10 renal = test system: TK-10 renal
MALME-3M melanoma = test system: MALME-3M melanoma
RXF 393 renal = test system: RXF 393 renal
MOLT-4 leukemia = test system: MOLT-4 leukemia
PC-3 prostate = test system: PC-3 prostate
NCI/ADR-RES ovarian = test system: NCI/ADR-RES ovarian
NCI-H226 lung = test system: NCI-H226 lung
MDA-MB-435 = test system: MDA-MB-435
OVCAR-5 ovarian = test system: OVCAR-5 ovarian
SK-OV-3 ovarian = test system: SK-OV-3 ovarian
U251 CNS = test system: U251 CNS
NCI-H23 lung = test system: NCI-H23 lung
HOP-92 NSCLC = test system: HOP-92 NSCLC
HCC-2998 colon = test system: HCC-2998 colon
T-47D breast = test system: T-47D breast
SF-539 CNS = test system: SF-539 CNS
A549 NSCLC = test system: A549 NSCLC
HL-60(TB) leukemia = test system: HL-60(TB) leukemia
COLO 205 colon = test system: COLO 205 colon
M14 melanoma = test system: M14 melanoma
NCI-H522 lung = test system: NCI-H522 lung

Cn1cc(C2=C(c3c4n(c5ccccc35)CCNC4)C(=O)NC2=O)c2ccccc21
GI50 (K-562 leukemia): 4.1 µM | TGI (K-562 leukemia): > 25 µM | GI50 (SN12C renal): 11.9 µM | TGI (SN12C renal): > 25 µM | GI50 (MDA-MB-231 breast): 9.87 µM | TGI (MDA-MB-231 breast): > 25 µM | GI50 (HS 578T breast): 4.14 µM | TGI (HS 578T breast): > 20.5 µM | GI50 (UACC-62 melanoma): 7.63 µM | TGI (UACC-62 melanoma): > 25 µM | GI50 (HOP-62 NSCLC): 17.5 µM | TGI (HOP-62 NSCLC): > 25 µM | GI50 (ACHN renal): 7.93 µM | TGI (ACHN renal): > 25 µM | GI50 (SF-295 CNS): 5.69 µM | TGI (SF-295 CNS): > 25 µM | GI50 (BT-549 breast): 16.7 µM | TGI (BT-549 breast): > 25 µM | GI50 (NCI-H460 lung): 10.6 µM | TGI (NCI-H460 lung): > 25 µM | GI50 (UO-31 renal): 4.53 µM | TGI (UO-31 renal): > 22.2 µM | GI50 (OVCAR-3 ovarian): 5.42 µM | TGI (OVCAR-3 ovarian): > 21.7 µM | GI50 (RPMI-8226 leukemia): 10.1 µM | TGI (RPMI-8226 leukemia): > 22.3 µM | GI50 (HCT-15 colon): 5.71 µM | TGI (HCT-15 colon): > 25 µM | GI50 (SR leukemia): 3.73 µM | TGI (SR leukemia): > 25 µM | GI50 (A498 renal): 4.71 µM | TGI (A498 renal): 14.3 µM | GI50 (SNB-75 CNS): 1.04 µM | TGI (SNB-75 CNS): 12 µM | GI50 (HCT-116 colon): 9.68 µM | TGI (HCT-116 colon): > 25 µM | GI50 (SK-MEL-28 melanoma): > 15.3 µM | TGI (SK-MEL-28 melanoma): > 25 µM | GI50 (OVCAR-4 ovarian): > 9.74 µM | TGI (OVCAR-4 ovarian): > 25 µM | GI50 (SK-MEL-2 melanoma): 8.03 µM | TGI (SK-MEL-2 melanoma): > 21.3 µM | GI50 (IGROV1 ovarian): > 10 µM | TGI (IGROV1 ovarian): > 21.5 µM | GI50 (SNB-19 CNS): > 22 µM | TGI (SNB-19 CNS): > 25 µM | GI50 (DU-145 prostate): 12.6 µM | TGI (DU-145 prostate): > 25 µM | GI50 (CCRF-CEM leukemia): 8.91 µM | TGI (CCRF-CEM leukemia): > 25 µM | GI50 (SW-620 colon): 6.92 µM | TGI (SW-620 colon): > 25 µM | GI50 (CAKI-1 renal): 5.85 µM | TGI (CAKI-1 renal): > 22.3 µM | GI50 (HT29 colon): 5.2 µM | TGI (HT29 colon): > 25 µM | GI50 (OVCAR-8 ovarian): > 16.9 µM | TGI (OVCAR-8 ovarian): > 25 µM | GI50 (SK-MEL-5 melanoma): 4.82 µM | TGI (SK-MEL-5 melanoma): > 17.2 µM | GI50 (SF-268 CNS): 10.5 µM | TGI (SF-268 CNS): > 25 µM | GI50 (LOX IMVI melanoma): 11.3 µM | TGI (LOX IMVI melanoma): > 25 µM | GI50 (MCF7 breast): 4.78 µM | TGI (MCF7 breast): > 23.8 µM | GI50 (UACC-257 melanoma): > 11.4 µM | TGI (UACC-257 melanoma): > 20.2 µM | GI50 (786-0 renal): 14.8 µM | TGI (786-0 renal): > 25 µM | GI50 (KM12 colon): 8.63 µM | TGI (KM12 colon): > 25 µM | GI50 (TK-10 renal): 11.3 µM | TGI (TK-10 renal): > 25 µM | GI50 (MALME-3M melanoma): > 11.5 µM | TGI (MALME-3M melanoma): > 24.1 µM | GI50 (RXF 393 renal): 3.73 µM | TGI (RXF 393 renal): 14.1 µM | GI50 (MOLT-4 leukemia): 11 µM | TGI (MOLT-4 leukemia): > 25 µM | GI50 (PC-3 prostate): 7.02 µM | TGI (PC-3 prostate): > 25 µM | GI50 (NCI/ADR-RES ovarian): 12.7 µM | TGI (NCI/ADR-RES ovarian): > 25 µM | GI50 (NCI-H226 lung): 13.8 µM | TGI (NCI-H226 lung): > 25 µM | GI50 (MDA-MB-435): 0.991 µM | TGI (MDA-MB-435): > 17.1 µM | GI50 (OVCAR-5 ovarian): > 25 µM | TGI (OVCAR-5 ovarian): > 25 µM | GI50 (SK-OV-3 ovarian): 8.84 µM | TGI (SK-OV-3 ovarian): > 25 µM | GI50 (U251 CNS): 9.23 µM | TGI (U251 CNS): > 25 µM | GI50 (NCI-H23 lung): 24.5 µM | TGI (NCI-H23 lung): > 25 µM | GI50 (HOP-92 NSCLC): 11.5 µM | TGI (HOP-92 NSCLC): > 25 µM | GI50 (HCC-2998 colon): 7.41 µM | TGI (HCC-2998 colon): > 17.4 µM | GI50 (T-47D breast): > 21.2 µM | TGI (T-47D breast): > 25 µM | GI50 (SF-539 CNS): 5.72 µM | TGI (SF-539 CNS): 14.3 µM | GI50 (A549 NSCLC): 11.8 µM | TGI (A549 NSCLC): > 25 µM | GI50 (HL-60(TB) leukemia): 3.92 µM | TGI (HL-60(TB) leukemia): > 25 µM | GI50 (COLO 205 colon): 6.66 µM | TGI (COLO 205 colon): > 21.8 µM | GI50 (M14 melanoma): 12.4 µM | TGI (M14 melanoma): > 25 µM | GI50 (NCI-H522 lung): 4.65 µM | TGI (NCI-H522 lung): > 19.1 µM
